What was measured:
[1] = molecular target: CDK4/CyclinD1 (Homo sapiens, UniProt P11802); experiment: CDK4/CyclinD1 Flashplate assay, 96-well format, biotinylated-Rb peptide substrate; type: biochemical
Method in brief: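 Biotinylated Rb peptide bound to streptavidin Flashplate; CDK4/CyclinD1 (70 ng/well) preincubated 30 min on ice with compound at 10, 3, 1, 0.3 and 0.1 μM final. Reaction with 1 μM cold ATP plus 33P-ATP for 45 min at RT; incorporated 33P counted, duplicates.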

[2] = molecular target: CDK2/CyclinE (Homo sapiens, UniProt P24941); experiment: CDK2/CyclinE Flashplate assay, 96-well format, biotinylated-Rb peptide substrate; type: biochemical
Method: This is a CDK2/CyclinE kinase assay in a 96-well Streptavidin-coated Flashplate with a biotinylated-Rb peptide substrate.
Each point is tested in duplicate
Biotinylated-Rb: Biotin-[…]-OH
• 1. Prepare substrate: 1 mg/ml solution made fresh in PBS. • 2. Add 4 μg per well to the Flashplate. • 3. Incubate for 2 hours at RT. • 4. From 10 mM inhibitor stocks in DMSO, make 1 mM, 300 μM, 100 μM, 30 μM and 10 μM series of dilution in DMSO. • 5. Was the Flashplate 3 times with 300 μl PBS to remove unbound peptide substrate. • 6. Add the CDK2/CyclinE kinase: 200 ng per well, in a volume of 90 μl in kinase buffer (except for “no enzyme” control wells). • 7. Add 1 μl per well of inhibitor to test 10 μM, 3 μM, 1 μM, 0.3 μM and 0.1 μM in final concentration per 100 μl in each well. • 8. Shake gently the Flashplate 1 minute. • 9. Incubate 30 minutes on wet ice. • 10. Initiate the reaction with 10 μl kinase buffer containing 1 μM final cold ATP and 1 μCi final ^33P-ATP per well. • 11. Shake gently the Flashplate 1 minute. • 12. Incubate 45 minutes at RT (no shaking). • 13. Wash the Flashplate 3 times with 300 μl PBS
14. Count to detect the incorporation of ^33P-ATP by the kinase to the Rb phosphorylation site.

Chain of CDK4/CyclinD1 (P11802 whole entry, species assumed): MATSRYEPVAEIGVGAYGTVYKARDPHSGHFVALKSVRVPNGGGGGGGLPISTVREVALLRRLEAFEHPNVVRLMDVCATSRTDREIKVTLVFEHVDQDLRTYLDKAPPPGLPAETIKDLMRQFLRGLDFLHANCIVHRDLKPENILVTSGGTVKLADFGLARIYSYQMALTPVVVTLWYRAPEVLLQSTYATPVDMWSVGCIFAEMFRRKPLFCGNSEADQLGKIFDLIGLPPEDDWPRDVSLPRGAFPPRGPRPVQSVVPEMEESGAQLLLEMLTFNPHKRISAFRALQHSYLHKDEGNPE
Chain of CDK4/CyclinD1 (P24385 whole entry partner, species assumed): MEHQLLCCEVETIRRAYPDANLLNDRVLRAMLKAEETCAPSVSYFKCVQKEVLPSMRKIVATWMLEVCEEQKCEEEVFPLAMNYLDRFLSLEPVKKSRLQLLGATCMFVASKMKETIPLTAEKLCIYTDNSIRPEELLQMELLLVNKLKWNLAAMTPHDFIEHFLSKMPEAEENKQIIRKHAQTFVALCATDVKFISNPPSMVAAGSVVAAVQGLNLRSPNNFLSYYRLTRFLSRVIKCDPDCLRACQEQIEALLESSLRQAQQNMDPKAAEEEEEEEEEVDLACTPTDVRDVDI

Row | inhibition at 10 µM [1] [%] | IC50 [2] [nM] | IC50 [1] [nM] | Compound
1 |  | > 10000 | > 3000 | COC(=O)Nc1nc2cc(OS(=O)(=O)c3ccc(NCCc4ccccc4)cc3)ccc2[nH]1 [Example 20, Methyl-5-(4-[2-phenylethyl]aminophenylsulfonyloxy) benzimidazole-2-carbamate]
2 |  | 240 | 1000 | O=C(Nc1ccccc1)Nc1nc2cc(OS(=O)(=O)c3ccc(-n4ccnc4)cc3)ccc2[nH]1 [Example 57-a, 4-Imidazol-1-yl-benzenesulfonic acid 2-(3-phenyl-ureido)-1H-benzoimidazol-5-yl ester]
3 |  | 200 | 1900 | CC(C)CNC(=O)Nc1nc2cc(OS(=O)(=O)c3ccc(NC4CCCC4)cc3)ccc2[nH]1 [Example 43, 4-Cyclopentylamino-benzenesulfonic acid 2-(3-isobutyl-ureido)-1H-benzoimidazol-5-yl ester]
4 |  | 9 | 500 | O=C(NCc1cccnc1)Nc1nc2cc(OS(=O)(=O)c3ccc(NC4CCCC4)cc3)ccc2[nH]1 [Example 58-j, 4-Cyclopentylamino-benzenesulfonic acid 2-(3-pyridin-3-ylmethyl-ureido)-1H-benzoimidazol-5-yl ester]
5 |  | 150 | 330 | O=C(NCCN1CCCC1)Nc1nc2cc(OS(=O)(=O)c3ccc(NC4CCCC4)cc3)ccc2[nH]1 [Example 58-ai, 4-Cyclopentylamino-benzenesulfonic acid 2-[3-(2-pyrrolidin-1-yl-ethyl)-ureido]-1H-benzoimidazol-5-yl ester]
6 | 60 | 600 |  | O=C(Nc1nc2cc(OS(=O)(=O)c3ccc(-n4ccnc4)cc3)ccc2[nH]1)NC1CCCC1 [Example 57-c, 4-Imidazol-1-yl-benzenesulfonic acid 2-(3-cyclopentyl-ureido)-1H-benzoimidazol-5-yl ester]
7 |  | 40 | 300 | O=C(NCc1ccccn1)Nc1nc2cc(OS(=O)(=O)c3ccc(NC4CCCC4)cc3)ccc2[nH]1 [Example 50, 4-Cyclopentylamino-benzenesulfonic acid 2-(3-pyridin-2-ylmethyl-ureido)-1H-benzoimidazol-5-yl ester]
8 |  | 200 | 1100 | O=C(NCCCN1CCCC1)Nc1nc2cc(OS(=O)(=O)c3ccc(NCC4CCCO4)cc3)ccc2[nH]1 (centres unmarked) [Example 59-h, 4-[(Tetrahydro-furan-2-ylmethyl)-amino]-benzenesulfonic acid 2-[3-(3-pyrrolidin-1-yl-propyl)-ureido]-1H-benzoimidazol-5-yl ester]
9 |  | 60 | 600 | CCNC(=O)Nc1nc2cc(OS(=O)(=O)c3ccc(NC4CCCC4)cc3)ccc2[nH]1 [Example 45, 4-Cyclopentylamino-benzenesulfonic acid 2-(3-ethyl-ureido)-1H-benzoimidazol-5-yl ester]
10 |  | 20 | 300 | O=C(NCc1ccccn1)Nc1nc2cc(OS(=O)(=O)c3ccc(NCC4CCCO4)cc3)ccc2[nH]1 (centres unmarked) [Example 59-k, 4-[(Tetrahydro-furan-2-ylmethyl)-amino]-benzenesulfonic acid 2-(3-pyridin-2-ylmethyl-ureido)-1H-benzoimidazol-5-yl ester]
11 |  | 600 | 1030 | COCC(=O)Nc1nc2cc(OS(=O)(=O)c3ccc(NC4CCCC4)cc3)ccc2[nH]1 [Example 28, 4-Cyclopentylamino-benzenesulfonic acid 2-(2-methoxy-acetylamino)-1H-benzoimidazol-5-yl ester]
12 |  | 10 | 270 | O=C(NCCCO)Nc1nc2cc(OS(=O)(=O)c3ccc(NC4CCCC4)cc3)ccc2[nH]1 [Example 58-y, 4-Cyclopentylamino-benzenesulfonic acid 2-[3-(3-hydroxy-propyl)-ureido]-1H-benzoimidazol-5-yl ester]

Continued, compound first:

Row | Compound | inhibition at 10 µM [1] [%] | IC50 [2] [nM] | IC50 [1] [nM]
13 | O=C(Nc1cccc(F)c1)Nc1nc2cc(OS(=O)(=O)c3ccc(-n4ccnc4)cc3)ccc2[nH]1 [Example 57-d, 4-Imidazol-1-yl-benzenesulfonic acid 2-[3-(3-fluoro-phenyl)-ureido]-1H-benzoimidazol-5-yl ester] | 70 | 500 | 
14 | CN1CCN(c2ccc(Nc3nc4cc(OS(=O)(=O)c5ccc(NC6CCCC6)cc5)ccc4[nH]3)cc2)CC1 [Example 70-h] |  | 250 | 140
15 | O=C(NCCCN1CCCC1=O)Nc1nc2cc(OS(=O)(=O)c3ccc(NC4CCCC4)cc3)ccc2[nH]1 [Example 58-ac, 4-Cyclopentylamino-benzenesulfonic acid 2-{3-[3-(2-oxo-pyrrolidin-1-yl)-propyl]-ureido}-1H-benzoimidazol-5-yl ester] |  | 13 | 170
16 | CN(C)C(=O)Nc1nc2cc(OS(=O)(=O)c3ccc(NC4CCCC4)cc3)ccc2[nH]1 [Example 32, N-[5-(4-cyclopentylaminophenylsulfonyloxy)-1H-benzimidazole-2-yl]-dimethylurea] |  | 1100 | > 5000
17 | COc1ccc(Nc2nc3cc(OS(=O)(=O)c4ccc(NC5CCCC5)cc4)ccc3[nH]2)cc1 [Example 70-d, 4-Cyclopentylamino-benzenesulfonic acid 2-(4-methoxy-phenylamino)-1H-benzoimidazol-5-yl ester] |  | 300 | 650
18 | CC(C)(C)OC(=O)NCC(=O)Nc1nc2cc(OS(=O)(=O)c3ccc(NC4CCCC4)cc3)ccc2[nH]1 [Example 24, 4-Cyclopentylamino-benzenesulfonic acid 2-(2-tert-butoxycarbonylamino-acetylamino)-1H-benzoimidazol-5-yl ester] |  | 400 | 600
19 | O=C(NCCNCCO)Nc1nc2cc(OS(=O)(=O)c3ccc(NCC4CCCO4)cc3)ccc2[nH]1 (centres unmarked) [Example 59-q, 4-[(Tetrahydro-furan-2-ylmethyl)-amino]-benzenesulfonic acid 2-{3-[2-(2-hydroxy-ethylamino)-ethyl]-ureido}-1H-benzoimidazol-5-yl ester] |  | 110 | 750
20 | CC(C)NC(=O)Nc1nc2cc(OS(=O)(=O)c3ccc(NC4CCCC4)cc3)ccc2[nH]1 [Example 34, 4-Cyclopentylamino-benzenesulfonic acid 2-(3-isopropyl-ureido)-1H-benzoimidazol-5-yl ester] |  | 120 | 1180
21 | CCN1CCCC1CNC(=O)Nc1nc2cc(OS(=O)(=O)c3ccc(NC4CCCC4)cc3)ccc2[nH]1 (centres unmarked) [Example 58-ah, 4-Cyclopentylamino-benzenesulfonic acid 2-[3-(1-ethyl-pyrrolidin-2-ylmethyl)-ureido]-1H-benzoimidazol-5-yl ester] |  | 30 | 330
22 | CN1CCN(CCCNC(=O)Nc2nc3cc(OS(=O)(=O)c4ccc(-n5ccnc5)cc4)ccc3[nH]2)CC1 [Example 57-k, 4-Imidazol-1-yl-benzenesulfonic acid 2-{3-[3-(4-methyl-piperazin-1-yl)-propyl]-ureido}-1H-benzoimidazol-5-yl ester] | 49 | 600 | 
23 | COC(=O)[C@H](CO)NC(=O)Nc1nc2cc(OS(=O)(=O)c3ccc(NC4CCCC4)cc3)ccc2[nH]1 [Example 58-an, 2-{3-[5-(4-Cyclopentylamino-benzenesulfonyloxy)-1H-benzoimidazol-2-yl]-ureido}-3S-hydroxy-propionic acid methyl ester] |  | 100 | 200
24 | O=C(NCCO)Nc1nc2cc(OS(=O)(=O)c3ccc(NCC4CCCO4)cc3)ccc2[nH]1 (centres unmarked) [Example 59-b, 4-[(Tetrahydro-furan-2-ylmethyl)-amino]-benzenesulfonic acid 2-[3-(2-hydroxy-ethyl)-ureido]-1H-benzoimidazol-5-yl ester] |  | 7 | 300
25 | COC(=O)Nc1nc2cc(OS(=O)(=O)c3ccc(N)cc3)ccc2[nH]1 [Example 16, Methyl-5-(4-aminophenylsulfonyloxy)benzimidazole-2-carbamate] |  | 1800 | 370
26 | O=C(Nc1cccc(F)c1)Nc1nc2cc(OS(=O)(=O)c3ccc(NC4CCCC4)cc3)ccc2[nH]1 [Example 58-d, 4-Cyclopentylamino-benzenesulfonic acid 2-[3-(3-fluoro-phenyl)-ureido]-1H-benzoimidazol-5-yl ester] | 84 | 1600 | 
27 | CCCCNC(=O)Nc1nc2cc(OS(=O)(=O)c3ccc(NC4CCCC4)cc3)ccc2[nH]1 [Example 35, 4-Cyclopentylamino-benzenesulfonic acid 2-(3-butyl-ureido)-1H-benzoimidazol-5-yl ester] |  | 120 | 1100
28 | CN1CCN(CCCNC(=O)Nc2nc3cc(OS(=O)(=O)c4ccc(NCC5CCCO5)cc4)ccc3[nH]2)CC1 (centres unmarked) [Example 59-m, 4-[(Tetrahydro-furan-2-ylmethyl)-amino]-benzenesulfonic acid 2-{3-[3-(4-methyl-piperazin-1-yl)-propyl]-ureido}-1H-benzoimidazol-5-yl ester] |  | 30 | 1200

Reference: patent publication US20050014811A1, “Substituted benzimidazole compounds and their use for the treatment of cancer” (Aventis Pharma S.A., priority 2001, published 2005)
